According to patent publication US20120234256A1, “[…] DEVICE” (priority 2009, published 2012):

What was measured:
human neuropathic pain = settings: in the clinic; cited from earlier work
[1] = tested on: persistent and neuropathic pain; settings: animal studies; cited from earlier work
[2] = tested on: rats with formalin injection into one hindpaw; experiment: Mechanical conflict device (MCD) test, inflammatory pain from formalin injection into one hindpaw; format: in vivo, rat; settings: formalin 0.2%, s.c. into one hindpaw, morphine 2.5 mg/kg i.p.
Excerpt: (§1) The mechanical conflict device can be used in various methods. With reference now to FIGS. 3-7, the MCD 10 of the present technology can be used to measure the response of a laboratory animal 17, such as a rat, to noxious mechanical stimuli. In this test, exit or escape from an aversive environment to a preferred environment is deterred by a noxious mechanical stimulus represented by the pins 60 on a raised pin platform 80, as shown in FIG. 6. In an initial MCD 10 training period, the pins 60 are lowered below the alley floor 50 and the laboratory animal 17 is placed into the holding compartment 20. […] The holding compartment 20 and the alley compartment 30 can be illuminated with normal room lighting. In some embodiments, the holding compartment 20 and/or the alley compartment 30 are supplemented by a light source 220, for example, a high-intensity, white-light LED array positioned above the alley compartment 30, as shown in FIGS. 3-6. At that time, panel walls 110 and 120 can be raised to allow the laboratory animal 17 to learn that it can exit from the mildly aversive stimuli (the light 220) in the holding compartment 20 and alley compartment 30 and move across the floor 50, passing into the more comfortable compensatory compartment 40 where it is generally dim and provides the laboratory animal 17 with a generally more rewarding area. […]

CCI rats = experiment: Mechanical conflict device (MCD) test, neuropathic pain from chronic constriction injury (CCI) of the left sciatic nerve; format: in vivo, rat; settings: pregabalin 10 and 30 mg/kg, i.p.
Excerpt: as §1

For `COc1ccccc1CN(C[C@@H](Cc1c[nH]c2ccccc12)NC(=O)CN1CCC(N2CCCCC2)CC1)C(C)=O` [LY 303870], the “Analgesia against human neuropathic pain” value (human neuropathic pain) is listed as “failed” and the “Relief of persistent and neuropathic pain” value [1] is listed as “did relieve persistent and neuropathic pain”.
With `CN1CC[C@]23c4c5ccc(O)c4O[C@H]2[C@@H](O)C=C[C@H]3[C@H]1C5` [morphine] the “Increased latency to exit produced by formalin injection” value ([2]; FIG. 14) was “not reduced” and the “Increased time spent on the stimulus array produced by formalin injection” value ([2]; FIG. 15) was “attenuated”.
With `CC(C)C[C@H](CN)CC(=O)O` [pregabalin] the “Latency to exit (light chamber)” value (CCI rats; FIG. 12) was “modulated” and the “Time spent on the stimulus array” value (CCI rats; FIG. 13) was “not modulated”.
